In patent US9120804B2, “8-substituted 2-amino-[1,2,4] triazolo [1, 5-A] pyrazines as Syk tryrosine kinase inhibitors and GCN2 serin kinase inhibitors” (Merck Patent GmbH, priority 2012, dated 2015):
pIC50: −log10 of the molar value.

biological target: T1, SYK (Homo sapiens, UniProt P43405); experiment: SYK flash plate assay (enzyme assay); type: biochemical
T1 construct: 2.5 nM SYK, 400 nM Biotin-Aha-Aha-KEDPDYEWPSAKK
In short: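 Radiometric Flashplate format: biotinylated peptide substrate (400 nM) and 33P-labelled ATP (10 μM) react with 2.5 nM enzyme for 1 hour at 30 °C in Hepes buffer, pH 7.5. After EDTA quench and washing, counts are taken; staurosporine defines non-specific signal, and IC50 values are derived.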

Row | Compound | pIC50
1 | CC1(C)C(=O)Nc2cc(Nc3nc4c(N5CCC(C(N)=O)CC5)nccn4n3)ccc21 [E40, 1-[2-(3,3-dimethyl-2-oxo-2,3-dihydro-1H-indol-6-ylamino)-[1,2,4]triazolo[1,5-a]pyrazin-8-yl]-piperidine-4-carboxylic acid amide] | > 7.00
2 | CC1(C)C(=O)Nc2cc(Nc3nc4c(N5CCCC5)nccn4n3)ccc21 [E41, 3,3-dimethyl-6-(8-pyrrolidin-1-yl-[1,2,4]triazolo[1,5-a]pyrazin-2-ylamino)-1,3-dihydro-indol-2-one] | > 7.00
3 | CC1CCC(C)N1c1nccn2nc(Nc3ccc4c(c3)NC(=O)C4(C)C)nc12 (stereo not drawn) [E43, 6-[8-(2,5-dimethyl-pyrrolidin-1-yl)-[1,2,4]triazolo[1,5-a]pyrazin-2-ylamino]-3,3-dimethyl-1,3-dihydro-indol-2-one] | > 7.00
4 | CCC1(O)CCN(c2nccn3nc(Nc4ccc5c(c4)NC(=O)C5(C)C)nc23)CC1 [E44, 6-[8-(4-ethyl-4-hydroxy-piperidin-1-yl)-[1,2,4]triazolo[1,5-a]pyrazin-2-ylamino]-3,3-dimethyl-1,3-dihydro-indol-2-one] | > 7.00
5 | CC1(C)CC(=O)Nc2cc(Nc3nc4c(N5CC[C@]6(CC(=O)NC6=O)C5)nccn4n3)ccc21 [E49, (S)-7-[2-(4,4-dimethyl-2-oxo-1,2,3,4-tetrahydro-quinolin-7-ylamino)-[1,2,4]triazolo[1,5-a]pyrazin-8-yl]-2,7-diaza-spiro[4.4]nonane-1,3-dione] | > 7.00
6 | CC1(C)C(=O)Nc2cc(Nc3nc4c(N5CC[C@]6(CNC(=O)C6)C5)nccn4n3)ccc21 [E52, 3,3-dimethyl-6-[8-((S)-8-oxo-2,7-diaza-spiro[4.4]non-2-yl)-[1,2,4]triazolo[1,5-a]pyrazin-2-ylamino]-1,3-dihydro-indol-2-one] | 6.52 to 7.00
7 | CC1(C)CCNc2cc(Nc3nc4c(N5CCC6(CC5)CNC(=O)O6)nccn4n3)ccc21 [E53, 8-[2-(4,4-dimethyl-1,2,3,4-tetrahydro-quinolin-7-ylamino)-[1,2,4]triazolo[1,5-a]pyrazin-8-yl]-1-oxa-3,8-diaza-spiro[4.5]decan-2-one] | > 7.00
8 | CC1(C)CCOc2cc(Nc3nc4c(N5CCC6(CC5)CNC(=O)O6)nccn4n3)ccc21 [E55, 8-[2-(4,4-dimethyl-chroman-7-ylamino)-[1,2,4]triazolo[1,5-a]pyrazin-8-yl]-1-oxa-3,8-diaza-spiro[4.5]decan-2-one] | > 7.00
9 | CC1(C)C(=O)Nc2cc(Nc3nc4c(N5CCCCCC5)nccn4n3)ccc21 [E57, 6-(8-azepan-1-yl-[1,2,4]triazolo[1,5-a]pyrazin-2-ylamino)-3,3-dimethyl-1,3-dihydro-indol-2-one] | > 7.00
10 | CC1(C)C(=O)Nc2cc(Nc3nc4c(N5CCC(c6ncc(C(F)(F)F)[nH]6)CC5)nccn4n3)ccc21 [E59] | > 7.00
11 | CC1(C)C(=O)Nc2cc(Nc3nc4c(N5CCCCC5)nccn4n3)ccc21 [E69, 3,3-dimethyl-6-(8-piperidin-1-yl-[1,2,4]triazolo[1,5-a]pyrazin-2-ylamino)-1,3-dihydro-indol-2-one] | > 7.00
12 | CC1=NC2(CCN(c3nccn4nc(Nc5ccc6c(c5)NC(=O)C6(C)C)nc34)CC2)C(=O)N1 [E71, 8-[2-(3,3-dimethyl-2-oxo-2,3-dihydro-1H-indol-6-ylamino)-[1,2,4]triazolo[1,5-a]pyrazin-8-yl]-2-methyl-1,3,8-triaza-spiro[4.5]dec-1-en-4-one] | 6.52 to 7.00
13 | CC1(C)C(=O)Nc2cc(Nc3nc4c(N5CCc6ccccc65)nccn4n3)ccc21 [E73, 6-[8-(2,3-dihydro-indol-1-yl)-[1,2,4]triazolo[1,5-a]pyrazin-2-ylamino]-3,3-dimethyl-1,3-dihydro-indol-2-one] | > 7.00

More lines, now with the values ahead:

Row | pIC50 | Compound
14 | > 7.00 | CC1CCCN1c1nccn2nc(Nc3ccc4c(c3)NC(=O)C4(C)C)nc12 (stereo not drawn) [E42, 3,3-dimethyl-6-[8-(2-methyl-pyrrolidin-1-yl)-[1,2,4]triazolo[1,5-a]pyrazin-2-ylamino]-1,3-dihydro-indol-2-one]
15 | > 7.00 | CC1(C)NC(=O)Nc2cc(Nc3nc4c(N5CCC6(CC5)CNC(=O)O6)nccn4n3)ccc21 [E45, 4,4-dimethyl-7-[8-(2-oxo-1-oxa-3,8-diaza-spiro[4.5]dec-8-yl)-[1,2,4]triazolo[1,5-a]pyrazin-2-ylamino]-3,4-dihydro-1H-quinazolin-2-one]
16 | > 7.00 | CC1(C)CC(=O)Nc2cc(Nc3nc4c(N5CCC6(CC5)CNC(=O)O6)nccn4n3)ccc21 [E46, 4,4-dimethyl-7-[8-(2-oxo-1-oxa-3,8-diaza-spiro[4.5]dec-8-yl)-[1,2,4]triazolo[1,5-a]pyrazin-2-ylamino]-3,4-dihydro-1H-quinolin-2-one]
17 | > 7.00 | CC1(C)OC(=O)Nc2cc(Nc3nc4c(N5CCC6(CC5)CNC(=O)O6)nccn4n3)ccc21 [E47, 4,4-dimethyl-7-[8-(2-oxo-1-oxa-3,8-diaza-spiro[4.5]dec-8-yl)-[1,2,4]triazolo[1,5-a]pyrazin-2-ylamino]-1,4-dihydro-benzo[d][1,3]oxazin-2-one]
18 | > 7.00 | CC1(C)CC(=O)Nc2cc(Nc3nc4c(N5CC[C@@]6(CC(=O)NC6=O)C5)nccn4n3)ccc21 [E48, (R)-7-[2-(4,4-dimethyl-2-oxo-1,2,3,4-tetrahydro-quinolin-7-ylamino)-[1,2,4]triazolo[1,5-a]pyrazin-8-yl]-2,7-diaza-spiro[4.4]nonane-1,3-dione]
19 | > 7.00 | CC1(C)CCCc2cc(Nc3nc4c(N5CCC6(CC5)CNC(=O)O6)nccn4n3)ccc21 [E54, 8-[2-(5,5-dimethyl-5,6,7,8-tetrahydro-naphthalen-2-ylamino)-[1,2,4]triazolo[1,5-a]pyrazin-8-yl]-1-oxa-3,8-diaza-spiro[4.5]decan-2-one]
20 | > 7.00 | CC1(C)C(=O)Nc2cc(Nc3nc4c(N5CCc6nc(N)ncc6C5)nccn4n3)ccc21 [E56, 6-[8-(2-amino-7,8-dihydro-5H-pyrido[4,3-d]pyrimidin-6-yl)-[1,2,4]triazolo[1,5-a]pyrazin-2-ylamino]-3,3-dimethyl-1,3-dihydro-indol-2-one]
21 | 6.52 to 7.00 | CC1=NOCC2(CCN(c3nccn4nc(Nc5ccc6c(c5)NC(=O)C6(C)C)nc34)CC2)C1 [E58, 3,3-dimethyl-6-[8-(4-methyl-2-oxa-3,9-diaza-spiro[5.5]undec-3-en-9-yl)-[1,2,4]triazolo[1,5-a]pyrazin-2-ylamino]-1,3-dihydro-indol-2-one]
22 | 5.52 to 6.52 | CC1(C)C(=O)Nc2cc(Nc3nc4c(Nc5n[nH]c(C(F)(F)F)n5)nccn4n3)ccc21 [E60, 3,3-dimethyl-6-[8-(5-trifluoromethyl-1H-[1,2,4]triazol-3-ylamino)-[1,2,4]triazolo[1,5-a]pyrazin-2-ylamino]-1,3-dihydro-indol-2-one]
23 | 4.30 to 5.52 | COC1=CC2C=CN=C2C=C1Nc1nc2c(N3CCC4(CC3)CNC(=O)O4)nccn2n1 (stereo not drawn) [E61, 8-[2-(5-methoxy-3aH-indol-6-ylamino)-[1,2,4]triazolo[1,5-a]pyrazin-8-yl]-1-oxa-3,8-diaza-spiro[4.5]decan-2-one]
24 | 5.52 to 6.52 | CC1(C)C(=O)Nc2cc(Nc3nc4c(N5C[C@@H](O)C[C@@H]5c5cccc(F)c5)nccn4n3)ccc21 [E62, 6-{8-[(2R,4S)-2-(3-fluoro-phenyl)-4-hydroxy-pyrrolidin-1-yl]-[1,2,4]triazolo[1,5-a]pyrazin-2-ylamino}-3,3-dimethyl-1,3-dihydro-indol-2-one]
25 | > 7.00 | CC1(C)C(=O)Nc2cc(Nc3nc4c(N5CCC6(CC5)CNC(=O)C6)nccn4n3)ccc21 [E63, 8-[2-(3,3-dimethyl-2-oxo-2,3-dihydro-1H-indol-6-ylamino)-[1,2,4]triazolo[1,5-a]pyrazin-8-yl]-2,8-diaza-spiro[4.5]decan-3-one]
26 | 5.52 to 6.52 | CC1(C)C(=O)Nc2cc(Nc3nc4c(N5C[C@H](O)C[C@@H]5c5cccc(F)c5)nccn4n3)ccc21 [E64, 6-{8-[(2R,4R)-2-(3-fluoro-phenyl)-4-hydroxy-pyrrolidin-1-yl]-[1,2,4]triazolo[1,5-a]pyrazin-2-ylamino}-3,3-dimethyl-1,3-dihydro-indol-2-one]
27 | 6.52 to 7.00 | CC1(C)C(=O)Nc2cc(Nc3nc4c(N5CCC(CNCC(F)(F)F)C5)nccn4n3)ccc21 (stereo not drawn) [E65, 3,3-dimethyl-6-(8-{3[(2,2,2-trifluoro-ethylamino)-methyl]-pyrrolidin-1-yl}-[1,2,4]triazolo[1,5-a]pyrazin-2-ylamino)-1,3-dihydro-indol-2-one]
28 | 5.52 to 6.52 | CC1(C)C(=O)Nc2cc(Nc3nc4c(C5CCCC5)nccn4n3)ccc21 [E66, 6-(8-cyclopentyl-[1,2,4]triazolo[1,5-a]pyrazin-2-ylamino)-3,3-dimethyl-1,3-dihydro-indol-2-one]
29 | > 7.00 | CC1(C)C(=O)Nc2cc(Nc3nc4c(N5CC6CCC(C5)O6)nccn4n3)ccc21 [E67, 3,3-dimethyl-6-[8-(8-oxa-3-aza-bicyclo[3.2.1]oct-3-yl)-[1,2,4]triazolo[1,5-a]pyrazin-2-ylamino]-1,3-dihydro-indol-2-one]
30 | > 7.00 | CC1(C)C(=O)Nc2cc(Nc3nc4c(N5CCCNCC5)nccn4n3)ccc21 [E68, 6-(8-[1,4]diazepan-1-yl-[1,2,4]triazolo[1,5-a]pyrazin-2-ylamino)-3,3-dimethyl-1,3-dihydro-indol-2-one]
31 | > 7.00 | CC1(C)C(=O)Nc2cc(Nc3nc4c(N5CCC(O)(C(F)(F)F)CC5)nccn4n3)ccc21 [E70, 6-[8-(4-hydroxy-4-trifluoromethyl-piperidin-1-yl)-[1,2,4]triazolo[1,5-a]pyrazin-2-ylamino]-3,3-dimethyl-1,3-dihydro-indol-2-one]
32 | > 7.00 | CC1(C)C(=O)Nc2cc(Nc3nc4c(N5CCCC(=O)CC5)nccn4n3)ccc21 [E72, 3,3-dimethyl-6-[8-(4-oxo-azepan-1-yl)-[1,2,4]triazolo[1,5-a]pyrazin-2-ylamino]-1,3-dihydro-indol-2-one]
33 | > 7.00 | CC1(C)C(=O)Nc2cc(Nc3nc4c(N5CCNC(=O)CC5)nccn4n3)ccc21 [E74, 3,3-dimethyl-6-[8-(5-oxo-[1,4]diazepan-1-yl)-[1,2,4]triazolo[1,5-a]pyrazin-2-ylamino]-1,3-dihydro-indol-2-one]
